Earlier results in patent US20250017885A1, “TREATMENT OF INCLUSION BODY MYOSITIS WITH PHENYLBUTYRATE AND MONITORING OF TREATMENT” (University of Kansas, priority 2023, published 2025).
Like-named read-outs stand apart in the source and are kept apart here.

Tested on: cultured human muscle fibers
Settings: cultured human muscle fibers with experimentally-impaired autophagy, Nogalska et al. 2014, cited from earlier work

In the case of `O=C([O-])CCCc1ccccc1.[Na+]` [NaPBA, Sodium phenylbutyrate], the “Aβ42 and Aβ42 oligomers” value is listed as “decreased Aβ42 and its oligomers”, the “Lysosomal dysfunction / lysosomal activity” value is listed as “improved lysosomal activity” and the Muscle-fiber vacuolization is listed as “virtually prevented muscle-fiber vacuolization”. For the same compound, the γ-secretase activity was “decreased γ-secretase activity” and the “Lysosomal dysfunction / lysosomal activity” value (listed as NaPB) was “reverses lysosomal dysfunction”.
